Measured values as given in patent US6610689B2, “HIV protease inhibitors based on amino acid derivatives” (priority 2001, dated 2003).
Read-outs that look alike come from different tables or passages of the source.

Target: T1, HIV protease (Human immunodeficiency virus type 1 group M subtype B, UniProt P04585)
T1 construct: A third viral enzyme known as protease then cleaves the polyproteins
Assay: Enzymatic Assay for Determining the Inhibition Constant (Ki) of Synthetic Compounds Targeting the HIV Protease (fluorometric FRET assay)
Type: biochemical
Excerpt: Enzymatic Assay for Determining the Inhibition Constant (Ki) of Synthetic Compounds Targeting the HIV Protease
This is a fluorometric assay based on the cleavage by protease of a substrate carrying a donor group (EDANS) and an acceptor group (DABCYL) on each side of the cleavage site, interacting together through fluorescence resonance energy transfer (FRET) as described by Matayoshi et al. (Science 247:[…], 1990).
After calculation of Vo and Vi, the inhibition constant (Ki) of the compound is determined using the equation of Henderson: [formula]
where Vo=the enzyme's initial velocity
Vi=the enzyme velocity in the presence of the inhibitory compound,
[I]=inhlibitor concentration, [S]=substrate concentration,
Km=Michaelis-Menten constant and Kiapp=apparent Ki
Graphs are traced and the Ki determined using GraphPad Prism software v. 3.0.

[1] = Table 1, compounds of formula I, read-out: Ki (anti-protease activity)

Molecule	Ki [µM]	other results
COC(=O)[C@H](CCCCNC(=O)[C@H](Cc1c[nH]c2ccccc12)NS(=O)(=O)c1ccc(C)cc1)N(CC(C)C)S(=O)(=O)c1ccc(C)cc1 [Example 69, Nα-Isobutyl-Nα-(4-methylbenzenesulfonyl)-Nε-[N′α-(4-methylbenzenesulfonyl)-L-tryptophanyl]-L-lysine Methyl Ester]	> 0.3	
Cc1ccc(S(=O)(=O)N(CC(C)C)[C@H](CO)CCCCNC(=O)[C@H](Cc2ccccc2)NC(=O)c2ccccc2)cc1 [Example 95, (2S,2′S) 2-N-Isobutyl-2-N-(4-methylbenzenesulfonyl)-6-N-(N′α-benzoyl-S-phenylalanyl)-2,6-diaminohexanol]	0.054	
Cc1ccc(S(=O)(=O)N(CC(C)C)[C@@H](CCCCNC(=O)[C@@H](N)Cc2ccc(OCc3ccccc3)cc2)C(=O)O)cc1 [Example 94, Nα-Isobutyl-Nα-(4-methylbenzenesulfonyl)-Nε-(O-benzyl-L-tyrosyl)-L-lysine]	0.177	
COc1ccc(S(=O)(=O)N[C@@H](Cc2ccccc2)C(=O)NCCCC[C@@H](CO)N(CC(C)C)S(=O)(=O)c2ccc(C)cc2)cc1 [Example 126, (2S,2′S) 2-N-Isobutyl-2-N-(4-methylbenzenesulfonyl)-6-N-[N′α-(4-methoxybenzenesulfonyl)-S-phenylalanyl]-2,6-diaminohexanol]	0.019	
CCC[C@H](NS(=O)(=O)c1ccccc1)C(=O)NCCCC[C@@H](C(=O)O)N(CC(C)C)S(=O)(=O)c1ccc(C)cc1 [Example 14, Nα-Isobutyl-Nα-(4-methylbenzenesulfonyl)-Nε-[N′α-(benzenesulfonyl)-L-norvalyl]-L-lysine]	0.185	
Cc1ccc(S(=O)(=O)N(CC(C)C)[C@H](CO)CCCCNC(=O)[C@@H]2Cc3c([nH]c4ccccc34)CN2C(=O)OC(C)(C)C)cc1 [Example 141, (2S,2′S) 2-N-Isobutyl-2-N-(4-methylbenzenesulfonyl)-6-N-(N′α-tert-butoxycarbonyl-S-1,2,3,4-tetrahydronorharman-3-carbonyl)-2,6-diaminohexanol]	0.038	
Cc1ccc(S(=O)(=O)N[C@H](Cc2ccccc2)C(=O)NCCCC[C@H](C(=O)O)N(CC(C)C)S(=O)(=O)c2ccc(C)cc2)cc1 [Example 66, Nα-Isobutyl-Nα-(4-methylbenzenesulfonyl)-Nε-[N′α-(4-methylbenzenesulfonyl)-D-phenylalanyl]-D-lysine]	> 0.3	
CC(C)CN([C@@H](CCCCNC(=O)[C@H](Cc1ccccc1)NS(=O)(=O)c1cccs1)C(=O)O)S(=O)(=O)c1ccc(N)cc1 [Example 46, Nα-(4-Aminobenzenesulfonyl)-Nα-isobutyl-Nε-[N′α-(2-thiophenesulfonyl)-L-phenylalanyl]-L-lysine]	0.000477	
COc1ccc(CC(=O)N[C@@H](Cc2ccccc2)C(=O)NCCCC[C@@H](C(=O)O)N(CC(C)C)S(=O)(=O)c2ccc(N)cc2)cc1 [Example 163, Nα-(4-Aminobenzenesulfonyl)-Nα-isobutyl-Nε-[N′α-(4-methoxyphenylacetyl)-L-phenylalanyl]-L-lysine]	0.00027	
Cc1ccc(S(=O)(=O)N[C@@H](Cc2c[nH]c3ccccc23)C(=O)NCCCC[C@@H](C(=O)O)N(CC(C)C)S(=O)(=O)c2ccc(N)cc2)cc1 [Example 43, Nα-(4-Aminobenzenesulfonyl)-Nα-isobutyl-Nε-[N′α-(4-methylbenzenesulfonyl)-L-tryptophanyl]-L-lysine]	0.00056	
CC(C)CN([C@@H](CCCCNC(=O)[C@H](Cc1ccccc1)NS(=O)(=O)c1cccs1)C(=O)NN)S(=O)(=O)c1ccc(N)cc1 [Example 49, Nα-(4-Aminobenzenesulfonyl)-Nα-isobutyl-Nε-[N′α-(2-thiophenesulfonyl)-L-phenylalanyl]-L-lysine Hydrazide]	0.017	
Cc1ccc(S(=O)(=O)N(CC(C)C)[C@@H](CCCCNC(=O)[C@H](Cc2ccc(OCc3ccccc3)cc2)NC(=O)OC(C)(C)C)C(=O)O)cc1 [Example 87, Nα-Isobutyl-Nα-(4-methylbenzenesulfonyl)-Nε-(N′α-tert-butoxycarbonyl-O-benzyl-L-tyrosyl)-L-lysine]	0.049	
Cc1ccc(S(=O)(=O)N(CC(C)C)[C@H](CO)CCCCNC(=O)[C@H](Cc2ccccc2)NS(=O)(=O)c2ccccc2)cc1 [Example 123, (2S,2′S) 2-N-Isobutyl-2-N-(4-methylbenzenesulfonyl)-6-N-(N′α-benzenesulfonyl-S-phenylalanyl)-2,6-diaminohexanol]	0.014	
CCCC[C@H](NS(=O)(=O)c1ccccc1)C(=O)NCCCC[C@@H](C(=O)O)N(CC(C)C)S(=O)(=O)c1ccc(C)cc1 [Example 15, Nα-Isobutyl-Nα-(4-methylbenzenesulfonyl)-Nε-[N′α-(benzenesulfonyl)-L-norleucyl]-L-lysine]	0.034	
Nα-Isobutyl-Nα-(4-methylbenzenesulfonyl)-Nε-[N′α-(4-methylbenzenesulfonyl)-L-phenylalanyl-N-cyanoamidine]-L-lysine [Example 98]		Ki (Anti-protease activity of Ne-amino acid substituted L-lysine derivatives and analogs of formula I, read-out: Ki): 0.0051 µM
CC(C)CN([C@H](CO)CCCCNC(=O)[C@H](Cc1c[nH]c2ccccc12)NS(=O)(=O)c1ccccc1)S(=O)(=O)c1ccc(N)cc1 [Example 167, (2S,2′S) 2-N-(4-Aminobenzenesulfonyl)-2-N-isobutyl-6-N-(N′α-benzenesulfonyl-S-tryptophanyl)-2,6-diaminohexanol]	0.0015	
Cc1ccc(S(=O)(=O)N(CC(C)C)[C@H](CO)CCCCNC(=O)[C@H](Cc2ccc(CNC(=O)OCC3c4ccccc4-c4ccccc43)cc2)NC(=O)OC(C)(C)C)cc1 [Example 144, (2S,2′S) 2-N-Isobutyl-2-N-(4-methylbenzenesulfonyl)-6-N-[N′α-tert-butoxycarbonyl-S-4-(9-fluorenemethoxycarbonylaminomethyl)phenylalanyl]-2,6-diaminohexanol]		Ki [1]: > 0.3 µM
COc1ccc(CN(CC(=O)NCCCC[C@@H](CO)N(CC(C)C)S(=O)(=O)c2ccc(N)cc2)c2ccccc2)cc1 [Example 176, (2S) 2-N-(4-Aminobenzenesulfonyl)-2-N-isobutyl-6-N-[N′α-(4-methoxybenzyl)-N′α-phenylglycyl]-2,6-diaminohexanol]	0.0024	
Cc1ccc(S(=O)(=O)N(CC(C)C)[C@H](CO)CCCCNC(=O)[C@H](CC#N)NS(=O)(=O)c2ccccc2)cc1 [Example 188, (2S,2′S) 2-N-Isobutyl-2-N-(4-methylbenzenesulfonyl)-6-N-(N′α-benzenesulfonyl-S-cyanoalanyl)-2,6-diaminohexanol]	0.079	
Cc1ccc(S(=O)(=O)N[C@@H](Cc2ccccc2)C(=O)NCCCC[C@@H](C(=O)O)N(CC(C)C)S(=O)(=O)c2ccc(C)cc2)cc1 [Example 1, Nα-Isobutyl-Nα-(4-methylbenzenesulfonyl)-Nε-[N′α-(4-methylbenzenesulfonyl)-L-phenylalanyl]-L-lysine]	0.0011	
Cc1ccc(S(=O)(=O)N(CC(C)C)[C@@H](CCCCNC(=O)[C@H](Cc2c[nH]c3ccccc23)NS(=O)(=O)c2ccc([N+](=O)[O-])cc2)C(=O)O)cc1 [Example 6, Nα-Isobutyl-Nα-(4-methylbenzenesulfonyl)-Nε-[N′α-(4-nitrobenzenesulfonyl)-L-tryptophanyl]-L-lysine]	0.0073	
COC(=O)N[C@@H](Cc1c[nH]c2ccccc12)C(=O)NCCCC[C@@H](CO)N(CC(C)C)S(=O)(=O)c1ccc(C)cc1 [Example 190, (2S,2′S) 2-N-Isobutyl-2-N-(4-methylbenzenesulfonyl)-6-N-(N′α-methoxycarbonyl-S-tryptophanyl)-2,6-diaminohexanol]	0.0022	
Cc1ccc(S(=O)(=O)N(CC(C)C)[C@@H](CCCCNC(=O)[C@H](Cc2ccccc2)NC(=O)OC(C)(C)C)C(=O)O)cc1 [Example 78, Nα-Isobutyl-Nα-(4-methylbenzenesulfonyl)-Nε-(N′α-tert-butoxycarbonyl-L-phenylalanyl)-L-lysine]	0.0025	
Cc1ccc(S(=O)(=O)N(CC(C)C)[C@@H](CCCCNC(=O)[C@H](Cc2ccccc2)NC(=O)N2CCOCC2)C(=O)O)cc1 [Example 51, Nα-Isobutyl-Nα-(4-methylbenzenesulfonyl)-Nε-[N′α-(4-morpholinecarbonyl)-L-phenylalanyl]-L-lysine]	0.0009	
Cc1ccc(S(=O)(=O)N[C@@H](CC(N)=O)C(=O)NCCCC[C@@H](C(=O)O)N(CC(C)C)S(=O)(=O)c2ccc(N)cc2)cc1 [Example 47, Nα-(4-Aminobenzenesulfonyl)-Nα-isobutyl-Nε-[N′α-(4-methylbenzenesulfonyl)-L-asparagyl]-L-lysine]	0.054	
Cc1ccc(S(=O)(=O)N[C@@H](Cc2c[nH]c3ccccc23)C(=O)NCCCC[C@@H](C=O)N(CC(C)C)S(=O)(=O)c2ccc(C)cc2)cc1 [Example 116, (2S,2′S) 2-N-Isobutyl-2-N-(4-methylbenzenesulfonyl)-6-N-[N′α-(4-methylbenzenesulfonyl)-S-tryptophanyl]-2,6-diaminohexanal]		Ki [1]: > 0.3 µM
Cc1ccc(S(=O)(=O)N(CC(C)C)[C@@H](CCCCNC(=O)CNc2ccccn2)C(=O)O)cc1 [Example 108, Nα-Isobutyl-Nα-(4-methylbenzenesulfonyl)-Nε-[N′α-(2-pyridyl)glycyl]-L-lysine]		Ki [1]: > 0.3 µM
Cc1ccc(S(=O)(=O)N(CC(C)C)[C@@H](CCCCNC(=O)[C@H](Cc2c[nH]c3ccccc23)NS(=O)(=O)c2cccs2)C(=O)O)cc1 [Example 53, Nα-Isobutyl-Nα-(4-methylbenzenesulfonyl)-Nε-[N′α-(2-thiophenesulfonyl)-L-tryptophanyl]-L-lysine]	0.013	
Cc1ccc(S(=O)(=O)N(CC(C)C)[C@@H](CCCCNC(=S)[C@H](Cc2c[nH]c3ccccc23)NS(=O)(=O)c2ccccc2)C(=O)O)cc1 [Example 74, Nα-Isobutyl-Nα-(4-methylbenzenesulfonyl)-Nε-(N′α-benzenesulfonyl-L-thiotryptophanyl)-L-lysine]	0.0048	
